From patent US7357914B2, “Use of metal chelates in human or animal feeding” (Agristudio S.R.L., priority 2002, dated 2008)
Where “and” joins values, the source holds several entries; their conditions need not be identical. Identical values can stand only once.

Experiments:
[1] = feeding test in weaned pigs, zinc source in food (growth, zinc retention, tissue minerals); type: in vivo; conditions: for Daily increase / Final living weight: about 27 days; for Final net weight: body weight without content of the digestive tube; for Diet: food intake, 50 ppm zinc from the source; for Daily net increase: net weight
Experimental: Two test groups of pigs (Control and Test) of 35 days of age and weaned at 19 days, were administered a food differing only in the zinc source. […] The two groups of animals were balanced by nest, living weight and sex and were fed for 27 days. Other 4 animals were immediately sacrificed and a sampling was made of them according to the following procedure. The two groups of animals were weighed before starting the test and after 27 days. At the end of the test the pigs were sacrificed and stomach, intestine, left kidney and liver were removed from every pig. Stomach and intestine were emptied and weighed again so as to obtain the net weight of said organs. A sample of kidney, liver and brain was taken and frozen. Stomach, intestine, left kidney and liver were then put together with the remaining carcass and homogenized with a mixer. A sample was then taken from the mass thus obtained and frozen. The samples were then dehydrated with a dehydrating device and underwent chemical analysis. The level of zinc, copper and iron were determined on the lyophilized samples by atomic absorption spectroscopy. The body levels of zinc were referred to the product. On the basis of the body's “net” weight (i.e. without the content of the digestive tube) and of its content of zinc at test beginning and end it was possible to determine also daily zinc retention.

[2] = water solubility of the isolated iron (II) chelate; type: physicochemical; conditions: pale yellow powder
Excerpt: After filtration and washing the chelated product is then dried so as to reduce the amount of absorbed water.

[3] = feeding test in female Charolaise calves, zinc source in diet (zootechnical performance); type: in vivo
Experimental: Living weight at test beginning and end, dead weight and slaughtering yield were determined for each animal.

[4] = pigs, 50 ppm zinc from the source in food
[5] = pigs, lyophilized samples, atomic absorption
[6] = single calves 1-6 of each group, Table 5, listed as TEST

## O=S(=O)([O-])[O-].[Zn+2] [zinc sulfate, reference compound]
[1]; [4]
  Daily increase: 321 g
  Final living weight: 16.20 kg
[1]; pigs
  Final net weight: 15.76 kg
  Diet: 548 g
  Daily net increase: 313 g
[1]; pigs, from net body weight and body zinc content at test beginning and end
  Daily Zn retention: 5.27 mg
[1]; [5]
  Brain Copper content: 23.3
  Brain Iron content: 80.6
  Brain Zinc content: 47.6
  Kidney Copper content: 40.2
  Kidney Iron content: 179
  Kidney Zinc content: 82.3
  Liver Copper content: 62.5 mg/kg
  Liver Zinc content: 300 mg/kg

## CSCCC(O)C(=O)[O-].CSCCC(O)C(=O)[O-].O.O.[Fe+2] (centres unmarked) [(CH3SCH2CH2CH(OH)COO)2Fe.2H2O]
[2]
  water solubility: little water soluble

## CSCCC(O)C(=O)[O-].CSCCC(O)C(=O)[O-].O.O.[Zn+2] (centres unmarked) [zinc chelate, (CH3SCH2CH2CH(OH)COO)2Zn.2H2O]
[1]; pig, in vivo
  Brain Copper content: 28.1
  Brain Iron content: 100.9
  Brain Zinc content: 53.9
  Daily Zn retention: 5.40 mg
  Kidney Copper content: 55.0
  Kidney Iron content: 244
  Kidney Zinc content: 97.5
  Liver Copper content: 63.6 mg/kg
  Liver Iron content: 240
  Liver Zinc content: 292 mg/kg
[1]; [4]
  Conversion index: 1.68
  Daily increase: 327 g
  Final living weight: 16.14 kg
[1]; pigs
  Final net weight: 15.57 kg
  Diet: 544 g
  Daily net increase: 314 g
[3]; calves, 90 days, 700 mg zinc daily, group value, Table 4, in kg
  Final weight: 652.
[3]; calves, 90 days, P<0.01
  carcass weight: 377 kg
[3]; calves, 90 days, group value, Table 4
  Daily increase: 1,039.
[3]; calves, 90 days, group value, Table 4, in kg
  carcass weight: 377.
[3]; calves, 90 days, p<0.05
  Final weight: 652 kg
  daily weight increase: 1,039 g
[3]; calves, slaughtering yield, p<0.01
  yield: 57.83%
[3]; [6]
  Dead weight: 421 kg and 457 kg and 398 kg and 378 kg and 320 kg and 318 kg
  Final weight: 724.61 kg and 789.29 kg and 686.21 kg and 653.98 kg and 557.49 kg and 548.28 kg
  Total increase: 99.0 kg and 112.5 kg and 103.5 kg and 90.00 kg and 81.00 kg and 80.10 kg
